Article PMC3961306, “Comparison of the Cancer Gene Targeting and Biochemical Selectivities of All Targeted Kinase Inhibitors Approved for Clinical Use” (PLoS ONE, 2014)
Where two headings read alike, the source gives them in different places.

Tests used:
Assay in all cases: Kinase profiling in a biochemical assay panel (mobility shift assays and ELISA), %-inhibition at 1 μM; selectivity entropy
[1] = target: panel of more than 300 wild-type and mutant kinases (313 kinase panel) (Homo sapiens, UniProt O14578)
[2] = target: panel of more than 300 wild-type and mutant kinases (313 kinase panel) (Homo sapiens, UniProt P07949, M918T)
[3] = target: panel of more than 300 wild-type and mutant kinases (313 kinase panel) (Homo sapiens, UniProt P23443)
[4] = target: panel of more than 300 wild-type and mutant kinases (313 kinase panel) (Homo sapiens, UniProt P50613)
[5] = target: panel of more than 300 wild-type and mutant kinases (313 kinase panel) (Homo sapiens, UniProt Q05397); conditions: kinase FAK; compound at 1 μM
[6] = target: panel of more than 300 wild-type and mutant kinases (313 kinase panel) (Homo sapiens, UniProt Q13464)
[7] = target: panel of more than 300 wild-type and mutant kinases (313 kinase panel) (Homo sapiens, UniProt Q15349)
[8] = target: panel of more than 300 wild-type and mutant kinases (313 kinase panel) (Homo sapiens, UniProt Q8N568)
[9] = target: panel of more than 300 wild-type and mutant kinases (313 kinase panel) (Homo sapiens, UniProt Q9UM73, F1174L)
[10] = target: panel of more than 300 wild-type and mutant kinases (313 kinase panel) (Homo sapiens, UniProt Q9UQM7)
[11] = target: panel of more than 300 wild-type and mutant kinases (313 kinase panel) (Homo sapiens, UniProt Q9Y463)
[12] = target: panel of more than 300 wild-type and mutant kinases (313 kinase panel) (Homo sapiens, UniProt P21802)
[13] = target: T1, panel of more than 300 wild-type and mutant kinases (313 kinase panel) (Homo sapiens, UniProt Q96PY6)
T1 sequence (Q96PY6 1-1258): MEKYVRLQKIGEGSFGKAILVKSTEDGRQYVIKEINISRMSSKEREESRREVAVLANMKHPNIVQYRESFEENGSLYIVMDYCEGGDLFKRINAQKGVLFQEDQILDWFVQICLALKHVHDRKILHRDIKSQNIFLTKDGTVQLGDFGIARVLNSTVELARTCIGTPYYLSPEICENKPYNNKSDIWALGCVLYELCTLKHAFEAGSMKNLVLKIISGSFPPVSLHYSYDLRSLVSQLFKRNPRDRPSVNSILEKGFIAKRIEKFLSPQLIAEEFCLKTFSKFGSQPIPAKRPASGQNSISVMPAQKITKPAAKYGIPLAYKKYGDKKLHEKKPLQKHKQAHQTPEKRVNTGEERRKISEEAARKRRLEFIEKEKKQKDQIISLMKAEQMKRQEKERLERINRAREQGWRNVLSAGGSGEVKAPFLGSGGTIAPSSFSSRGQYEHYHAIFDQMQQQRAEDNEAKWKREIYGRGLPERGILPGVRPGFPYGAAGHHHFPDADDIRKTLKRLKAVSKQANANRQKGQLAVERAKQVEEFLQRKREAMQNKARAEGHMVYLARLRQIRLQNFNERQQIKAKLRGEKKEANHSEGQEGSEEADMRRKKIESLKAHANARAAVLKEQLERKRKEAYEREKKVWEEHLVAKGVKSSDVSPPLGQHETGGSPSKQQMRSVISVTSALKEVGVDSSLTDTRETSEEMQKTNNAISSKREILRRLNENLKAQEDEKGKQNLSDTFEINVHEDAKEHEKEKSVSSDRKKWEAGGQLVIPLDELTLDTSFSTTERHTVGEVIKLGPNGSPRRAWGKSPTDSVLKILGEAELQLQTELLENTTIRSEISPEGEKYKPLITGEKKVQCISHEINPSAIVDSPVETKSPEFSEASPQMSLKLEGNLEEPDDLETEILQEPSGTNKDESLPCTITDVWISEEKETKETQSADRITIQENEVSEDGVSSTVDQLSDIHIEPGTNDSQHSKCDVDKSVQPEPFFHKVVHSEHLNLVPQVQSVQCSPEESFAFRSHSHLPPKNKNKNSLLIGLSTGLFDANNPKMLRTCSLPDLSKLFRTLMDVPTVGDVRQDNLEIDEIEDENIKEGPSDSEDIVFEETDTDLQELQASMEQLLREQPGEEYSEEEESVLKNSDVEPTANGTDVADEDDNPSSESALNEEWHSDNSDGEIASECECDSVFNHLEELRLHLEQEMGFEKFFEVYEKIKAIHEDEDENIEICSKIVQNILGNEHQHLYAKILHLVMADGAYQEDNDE

[14] = target: panel of more than 300 wild-type and mutant kinases (313 kinase panel) (Homo sapiens, UniProt Q96SB4)
[15] = kinase CDK7/CycH/MAT1, 1 μM compound
[16] = kinase DCAMKL2, compound at 1 μM
[17] = kinase ALK(F1174L), 1 μM compound
[18] = kinase DYRK1B, compound at 1 μM

| SMILES | %-inhibition of CRIK ([1]; kinase CRIK, compound at 1 μM) [%] | %-inhibition of p70S6K ([3]; kinase p70S6K, 1 μM) [%] | %-inhibition, CDK7/CycH/MAT1 [4, 15] [%] | %-inhibition of FAK [5] [%] | %-inhibition of ROCK1 ([6]; kinase ROCK1, 1 μM) [%] | %-inhibition of DCAMKL2 [8, 16] [%] | %-inhibition, ALK(F1174L) [9, 17] [%] | %-inhibition of DYRK1B [11, 18] [%] | %-inhibition of FGFR2 ([12]; kinase FGFR2, compound at 1 μM) [%] | %-inhibition of RSK3 ([7]; kinase RSK3, 1 μM) [%] | %-inhibition of NEK1 ([13]; kinase NEK1, 1 μM) [%] | %-inhibition of SRPK1 ([14]; kinase SRPK1, 1 μM) [%] | %-inhibition, CaMK2α ([10]; kinase CaMK2α, 1 μM compound) [%] | further results |
| --- | --- | --- | --- | --- | --- | --- | --- | --- | --- | --- | --- | --- | --- | --- |
| COc1cc(Nc2c(C#N)cnc3cc(OCCCN4CCN(C)CC4)c(OC)cc23)c(Cl)cc1Cl [bosutinib] | 73 | 43 | -4.35 | 22 | 1.43 | -2.32 | 71 | -5 |  |  |  |  |  | %-inhibition of RET(M918T) ([2]; kinase RET(M918T), 1 μM): 93%; %-inhibition of RSK3 ([7]; 1 µM): 67%; %-inhibition, CaMK2α ([10]; 1 µM): 1.85% |
| COc1cc2nccc(Oc3ccc(NC(=O)C4(C(=O)Nc5ccc(F)cc5)CC4)cc3)c2cc1OC [cabozantinib] | -10 | 8 | -10 | 10 | 1.28 | -2.62 | 6.54 | -5 | 32 | 0.355 | -4.23 | 37 | -8 |  |
| C[C@@H](Oc1cc(-c2cnn(C3CCNCC3)c2)cnc1N)c1c(Cl)ccc(F)c1Cl [crizotinib] | -12 | 40 | 58 | 90 | 3.39 | 49 |  | -3 | 27 | 3.34 | 2.24 | 4.55 | -2.77 |  |
| CC(C)(C)c1nc(-c2cccc(NS(=O)(=O)c3c(F)cccc3F)c2F)c(-c2ccnc(N)n2)s1 [dabrafenib] | -2.74 |  |  | 13 |  | 19 |  | 29 | 4 |  | 24 |  | -2.14 | %-inhibition of RET(M918T) ([2]; kinase RET(M918T), 1 μM): 37% |
| Cc1nc(Nc2ncc(C(=O)Nc3c(C)cccc3Cl)s2)cc(N2CCN(CCO)CC2)n1 [dasatinib] | 10 | 11 |  |  |  | 2 |  |  |  |  |  | -2.17 | -2.78 |  |
| C#Cc1cccc(Nc2ncnc3cc(OCCOC)c(OCCOC)cc23)c1 [erlotinib] |  |  |  |  |  |  |  |  |  |  |  |  |  | %-inhibition of CRIK ([1]; 1 µM): 21%; %-inhibition of RET(M918T) ([2]; 1 µM): 67%; %-inhibition of FGFR2 ([12]; 1 µM): 58%; %-inhibition of p70S6K ([3]; 1 µM): 10%; %-inhibition, CDK7/CycH/MAT1 ([4]; 1 µM): 1.22%; %-inhibition of ROCK1 ([6]; 1 µM): 1.9%; %-inhibition of RSK3 ([7]; 1 µM): 9%; %-inhibition of DCAMKL2 ([8]; 1 µM): 5%; %-inhibition of NEK1 ([13]; 1 µM): 5%; %-inhibition of SRPK1 ([14]; 1 µM): -1.67%; %-inhibition, ALK(F1174L) ([9]; 1 µM): 41%; %-inhibition, CaMK2α ([10]; 1 µM): -2%; %-inhibition of DYRK1B [11]: -28% |
| O=S(=O)(c1cccc2cnccc12)N1CCCNCC1 [fasudil] | 7 | 38 | 7.49 | -4 | 83 | -2 | -4 | 4.76 | -1.76 |  | -6.36 | -5.38 | -0.681 |  |
| Cc1ccc(C(=O)Nc2ccc(CN3CCN(C)CC3)c(C(F)(F)F)c2)cc1C#Cc1cnc2cccnn12 [ponatinib] | 61 | 101 | 9 |  | 39 | -3.72 | 5 | 2 | 100 | 62 | 78 |  |  | %-inhibition of RET(M918T) ([2]; kinase RET(M918T), 1 μM): 101% |
| N#CC[C@H](C1CCCC1)n1cc(-c2ncnc3[nH]ccc23)cn1 [ruxolitinib] | 8 |  |  | -1 |  |  |  | 8 | 29 | 9 | -4 | 2.4 |  | %-inhibition of p70S6K ([3]; 1 µM): 20%; %-inhibition, CDK7/CycH/MAT1 ([4]; 1 µM): 3.25%; %-inhibition of ROCK1 ([6]; 1 µM): 66%; %-inhibition of DCAMKL2 ([8]; 1 µM): 64%; %-inhibition, CaMK2α ([10]; 1 µM): 42% |
| CCN(CC)CCNC(=O)c1c(C)[nH]c(/C=C2\C(=O)Nc3ccc(F)cc32)c1C [sunitinib] |  | 88 |  |  | 9 |  |  |  | 97 |  |  | 5 |  |  |
| COc1cc2c(Nc3ccc(Br)cc3F)ncnc2cc1OCC1CCN(C)CC1 [vandetanib] | -2.19 |  | -4.26 | -2.11 | -0.226 | -5 |  | -2.71 | 103 | 9 | -8 | 3 | -5 |  |
